Measurements: patent US20100261219A1, “TEST METHOD OF BIOAVAILABILITY AND BIOEQUIVALENCE FOR XENOBIOTICS USING GENETIC PROFILING” (priority 2008, published 2010)
Where two headings read alike, the source gives them in different places.

Columns and labels:
[1] = in vivo; cited from earlier work

## CC/C(=C(\c1ccccc1)c1ccc(OCCN(C)C)cc1)c1ccccc1 [Tamoxifen]
[1]
  t1/2: 8 days

## CCN(CC)CCCC(C)Nc1ccnc2cc(Cl)ccc12 (stereo not shown) [Chloroquine]
[1]
  t1/2: 41 days

## CC/C(=C(\c1ccccc1)c1ccc(OCCNC)cc1)c1ccccc1 [demethyltamoxifen]
[1]
  t1/2: 11 days

## Cc1nc2n(c(=O)c1CCN1CCC(c3noc4cc(F)ccc34)CC1)CCCC2 [risperidone, Risperidone]
Genotype of CYP2D6*10
  Concentration of risperidone in blood plasma: influence of genotype: significantly varied
Participants with mutant type, 48 hours after dosing
  Concentration of risperidone in blood plasma: capable of being measured
Participants with only wild type, 24 hours after dosing
  Concentration of risperidone in blood plasma: reduced below a measurable level
Wild type participants compared to heterozygous or mutant type (FIG. 7-9)
  Concentration of risperidone in blood plasma: considerably low
